{
  "source": "patent US9750723B2",
  "about": "“Prevention and treatment of non-alcoholic fatty liver disease” (Ohio University, priority 2014, dated 2017)",
  "key": {"[1]": {"test_system": "C57BL/6J mice placed on an HFD", "assay": "Evaluation of phenylmethimazole in treating NAFLD in C57BL/6J mice fed high fat diet (Example 3)", "type": "in vivo", "details": "HFD mice with NAFLD, ip once daily 1, 3 or 10 mg/kg/day for 16 weeks (up to 24 weeks); contemplated result", "description": "Experimental Protocol. C57BL/6J mice are placed on an HFD containing 60% fat (by % Kcal) (Diet #D12492, Research Diets, Inc.) for a period of weeks (as determined by the results of Example 1) until development of NAFLD is observed and clearly distinguishable from LFD-fed mice of the same age (between 4-8 weeks). At the time or after NAFLD is observed, once daily ip injections of phenylmethimazole (i.e., C10), DMSO, or sham are administered. 5 mice are then euthanized weekly thereafter to characterize the effects of C10, DMSO, and/or sham on treatment of NAFLD for the period of 16 weeks post-initiation of C10, DMSO, and sham administration. The period of time for which treatment is administered will be extended to 24 weeks if no effect of C10 administration on treatment of NAFLD is observed. The following Table further illustrates the experimental design: […]\nNAFLD is evaluated in the liver of the HFD mice macroscopically, microscopically, and molecularly. […] Then, the liver of each mouse is split in half, wherein one half is used for microscopic analysis of NAFLD and the remaining half is used for molecular analysis of NAFLD (i.e., quantification of triglycerides). Quantification of triglycerides is performed in accordance with the general protocol described in Example 1."}, "[2]": {"test_system": "C57BL/6J mice on the HFD", "assay": "Evaluation of phenylmethimazole in preventing NAFLD in mice (Example 2)", "type": "in vivo", "description": "Triglycerides were quantified in accordance with the following general protocol, based upon the Salmon and Flatt Method of Liver Saponification. 50-100 mg of liver tissue was placed into an Eppendorf tube and weighed. Equal volume per weight of 3 M KOH (in 65% EtOH) was added to the tube and vortexed. The tube was placed at 70° C. for 1 hr to activate digestion. The tubes were vortexed every 15 minutes. The tube was set at room temperature overnight to allow for complete digestion, and was vortexed periodically. The sample was diluted to a final concentration of 100 mg of liver tissue per 600 μl fluid; the sample was diluted by adding 2 M Tris-HCl (un-pHed) to a final concentration of 50 mM. Where a second dilution was required, the sample was diluted using 50 mM Tris-HCl (pH 7.5). Triglycerides-GPO (0.5 mL, liquid; Pointe Scientific Cat. No. T7532-500; Fisher Scientific, Pittsburgh, Pa.) were aliquoted into Eppendorf tubes and warmed in a 37° C. water bath for 5-10 minutes. Glycerol standards (0, 1, 2.5, 5, 7.5 and 10 mmol/L) were made by diluting 10 mmol/L stock of glycerol, such as, e.g., with 50 mM Tris-HCl. 5 μL of the sample and glycerol standards (0, 1, 2.5, 5, 7.5 and 10 mmol/L) were added to 0.5 mL of the triglycerides-GPO, mixed, and incubated at room temperature for 5 minutes. The mixture was then vortexed and added (200 μL) to each well of a 96-well flat-bottom ELISA plate (in duplicate). Absorbance (i.e., optical density) was read at 500 nm. The concentrations of the samples were determined via use of a plot of glycerol standards concentration (mmol/L) with respect to optical density (i.e., O.D.) at 500 nm. The concentration of glycerol (mg glycerol/g tissue) was then calculated and triglyceride concentration was determined, in accordance with calculations known to those of ordinary skill in the art.\nExperimental Protocol. 7 week old male C57BL/6J mice were placed on either a LFD (i.e., having a fat content of 10%, N=8) or a HFD (i.e., having a fat content of 60%, N=40). The mice placed on the LFD served as a control. […]\nAfter 18 weeks, all of the C57BL/6J mice were euthanized. […] More specifically, NAFLD was evaluated in the liver tissue of the euthanized C57BL/6J mice microscopically and molecularly. Following euthanasia, the liver of each mouse was removed and divided, wherein one portion was used for the microscopic analysis of NAFLD and another portion was used for the molecular analysis of NAFLD (i.e., quantification of triglycerides). Quantification of triglycerides was performed in accordance with the general protocol described in Example 1."}, "[3]": {"test_system": "patient having NAFLD", "assay": "Therapeutic use of phenylmethimazole to treat NAFLD (Example 5)", "type": "in vivo, human", "details": "once daily oral dose of 3 mg/kg for 16 weeks, contemplated result", "description": "Experimental Protocol. A patient having NAFLD is prescribed phenylmethimazole to reduce the fat content in their liver. After determination of a baseline level of fat content in their liver, the patient takes a once daily oral dose of 3 mg/kg of body weight of phenylmethimazole for a period of 16 weeks, during which fat content in their liver tissue is determined via liver function testing, liver ultrasound, and liver biopsy."}, "[4]": {"test_system": "patient at risk for developing NAFLD", "assay": "Therapeutic use of phenylmethimazole to prevent development of NAFLD (Example 4)", "type": "in vivo, human", "details": "once daily oral dose of 1 mg/kg chronically, contemplated result", "description": "Experimental Protocol. A patient at risk for developing NAFLD is prescribed phenylmethimazole to prevent excess accumulation of fat. The patient takes a once daily oral dose of 1 mg/kg of body weight of phenylmethimazole chronically, during which fat content in the liver is determined via liver function testing, liver ultrasound, and liver biopsy."}},
  "data": [
    {"smiles": "Cn1c(-c2ccccc2)cnc1S", "note": "[phenylmethimazole, 5-Phenylmethimazole]", "values": [
      {"measurement": "fat content in the liver tissue of the mice", "setting": "[1]", "value": "reduced relative to a baseline level"},
      {"measurement": "fatty liver disease, macroscopically observed in liver tissue", "setting": "[2]; ip 0.1 mg/kg, 1 mg/kg or 10 mg/kg once daily for 18 weeks, compared to HFD mice with sham injection or DMSO", "value": "much less fatty liver disease despite obesity"},
      {"measurement": "triglyceride concentration in liver tissue (FIG. 4)", "setting": "[2]; ip 1 mg/kg or 10 mg/kg once daily for 18 weeks, compared to HFD mice with no phenylmethimazole", "value": "lower triglyceride concentration"},
      {"measurement": "prevention of NAFLD", "setting": "[2]; ip 0.1, 1, 10 mg/kg once daily for 18 weeks", "value": "prevented NAFLD in the mice fed the HFD in a dose-dependent manner"},
      {"measurement": "fatty liver disease, microscopic observation of liver tissue (FIG. 3(B)-(D))", "setting": "[2]; ip 0.1, 1 or 10 mg/kg once daily for 18 weeks, compared to HFD mice with sham injection or DMSO", "value": "much less fatty liver disease"},
      {"measurement": "fat content in the patient's liver", "setting": "[3]", "value": "reduced relative to the baseline level"},
      {"measurement": "excess accumulation of fat in the liver", "setting": "[4]", "value": "no excess accumulation of fat has occurred"}
    ]}
  ]
}
